Data published in US20200088732A1, “METHODS FOR THE DIAGNOSIS AND TREATMENT OF PANCREATIC DUCTAL ADENOCARCINOMA” (INSERM (Institut National de la Santé et de la Recherche …, priority 2017, published 2020).

Legend:
Type in all cases: cell-based
[1] = system: Mouse pancreatic cancer cell, Pk4A; assay: Cell migration assay (Boyden chambers), Pk4A cells; settings: versus ACm/PAP+ media, AG490 30 μM, 1 hr 45 min, P<0.05, FIG. 2E
Procedure: (§1) Cancer cell migration was studied using PKA4 and PANC-1 cell lines under different media (medium with or without recombinant PAP/REG3A or conditioned medium from acinar cells) on Boyden chambers. Culture inserts from BD Biosciences (353097, Le pont le Claix, FR), with a porous membrane of […], were coated with a mix made of gelatin 0.1% from Sigma-Aldrich (G1890, St Quentin, FR) and fibronectin 10 μg/mL from Sigma-Aldrich (F0895, St Quentin, FR) then seeded with PK4A or PANC-1 cells (100 0000 or 75 000 cells respectively per insert) and placed into wells containing culture media (with or without recombinant PAP/REG3A). PAP/REG3A or […] were used from 0 to 500 ng/mL. Migration was performed for 4 hrs for medium with or without recombinant PAP/REG3A or β and for 1 hr 45 min for conditioned medium from acinar cells. After cleaning and briefly staining inserts with coomassie blue, migration was assessed by counting (Image J software) the number of colored cells in 8-16 high-power fields (magnification ×10).

[2] = system: Human pancreatic cancer cell, Panc-1; assay: Cell migration assay (Boyden chambers), Panc-1 cells; settings: 100 ng/mL PAP/REG3A recombinant protein, AG490 at 30 μM, P<0.05, FIG. 2C
Procedure: as §1

[3] = system: Mouse pancreatic cancer cell, Pk4A; assay: Cell invasion assay (matrigel Boyden chambers), PK4A cells; settings: PAP/REG3β 500 ng/mL, AG490 30 μmol/L, 24 hrs, P<0.05, FIG. 2D
Procedure: Cancer cell invasion was studied using PKA4 cells on Boyden chambers according to manufacturer's protocol (354480, Corning Lifesciences, Corning, N.Y., USA). Mouse recombinant PAP/REG3β was used at 500 ng/mL and AG490 at 30 μmol/L. Culture inserts were pre-coated with matrigel matrix then seeded with PK4A (100 0000 cells per insert) and placed into wells containing the medium. Cell counting was measured after 24 hrs of incubation. After cleaning and briefly staining inserts with coomassie blue, invasion was assessed by counting (Image J software) the number of colored cells in 8-16 high-power fields (magnification ×10).

Pk4A cells = assay: Ex vivo peri-neural invasion assay (mouse sciatic nerve co-cultured with cancer cells)
Procedure: The day before the experiment 125,000 PK4A cells are seeded in 24 well plates in DMEM supplemented with 10% FBS and 1% antibiotic/antimycotic. 24 hrs after inhibitors (AG490 at 30 μmol/L or SC144 at 2 μmol/L) were added for 2 h. […] A mouse sciatic nerve section (5 mm) is placed in every well and cultured for 48 hrs then nerve sections are fixed 24 hrs in 4% formaldehyde and embedded in paraffin for immunohistochemistry study. Nerve sections from each condition are cut to make 4 μm sections from 2 different depths spaced by 50 μm and fixed on slides. Slides are processed for cytokeratin immunostaining by IHC as mentioned above. Cells stained with cytokeratine inside or in contact with nerve are recorded (Image J software).
Using human PDA slides, we observed that PAP/REG3A staining is associated with nerve density (Data not shown). Indeed, nerve fibers are mainly present in tissues areas where PAP/REG3A is strongly expressed. […] To further deepen the suspected role of PAP/REG3A as favoring PNI, we designed a specific ex-vivo experiment. Such experiment was done using mouse sciatic nerve fibers that we incubated with Pk4A cells+/−PAP/REG3β mouse recombinant protein (Data not shown). […]

Compound: N#C/C(=C\c1ccc(O)c(O)c1)C(=O)NCc1ccccc1 [AG490]
- change of the ACm/PAP+-induced increase of Pk4A migration [1]: significantly reduced
- effect of inhibitor on PAP/REG3A-induced Panc-1 migration [2]: impair PAP/REG3A effect on Panc-1 migration
- effect of inhibitor on PAP/REG3β-induced invasion [3]: inhibited
- effect of inhibitor on PAP/REG3β-induced nerve fibers invasion by pancreatic cancer cells (Pk4A cells; PAP/REG3β 500 ng/mL, AG490 30 μmol/L, FIG. 3A): impairs significantly

Compound: O=C(NNc1nc2cc(F)ccc2n2cccc12)c1cnccn1 [SC144]
- PNI relative to acinar cell media containing PAP/REG3β (ACm/PAP+) (Pk4A cells; Pk4A with nerve fibers and acinar cell media, SC144 2 μmol/L, P<0.05, FIG. 3B): drastically reduced
